Key:
sensitive skin = assay: Human patch test for skin irritation on sensitive skin; assay type: in vivo
Protocol: A test was conducted to evaluate the suitability and safety of use of soothing gel, lotion, cream, body wash, and foam cleanser formulations including a composition including the ceramide and green barley extract of the present invention. The inventors requested the OATC Skin Clinical Trials Center to perform a human application test, and the test was conducted in accordance with the cosmetics guidelines of Korea's Ministry of Food and Drug Safety, Declaration of Helsinki, and OATC Skin Clinical Trials Center's SOP.
In order to classify the test subjects according to skin type, the test subjects were screened by a stinging test to identify those with sensitive skin, wherein steam was applied to their faces for 10 minutes using a steamer to make their skin sensitive, and subsequently, each of 10% lactic acid and distilled water (D.W.) was applied to the nasolabial folds on either side of the nose.
After the test subject's test site was wiped off with 70% ethanol and dried, 25 μl of a test product was applied dropwise to IQ Ultra, which was then attached and fixed to the test site. At 30 minutes, 24 hours, and 48 hours after removing the patch, the level of irritation was evaluated by two experts using, as a standard, the evaluation method devised by Frosch & Kligman and employing the reading standards of the International Contact Dermatitis Research Group (ICDRG).
In addition, safety zones were established, and an experiment was conducted while using the safety zones as criteria for evaluating the likelihood of causing irritation.

filaggrin (FLG) = assay: FLG production in HaCaT cells (Filaggrin-ELISA kit); assay type: cell-based; conditions: for Increase in FLG production (%): 24 hours, Concentration 50 (unit not given), Control = 100
Protocol: (§1) HaCaT cells were dispensed into a 24-well plate at 1.0×10^5 cells/mL and cultured under the conditions of 37° C. and 5% CO2 for 18 hours. After the medium was replaced with serum-free DMEM, the cells were treated with a sample and then cultured for 24 hours. Subsequently, the culture solution was removed, and each group was washed with PBS and then treated with PBS containing no drugs that could interfere with the quantification of proteins. The cells were lysed through repeated switching between low-temperature incubation and room-temperature incubation, and the proteins were collected. The quantification was performed, using a Filaggrin-ELISA kit (Elabscience Biotechnology Co., Ltd.), according to the method specified by the manufacturer.
In order to evaluate the skin barrier strengthening effect of Examples 1 to 6 and Comparative Examples 1 to 5, an experiment was conducted to evaluate the effect of increasing the production of FLG.
The production amount of FLG was measured in the same manner as in Experimental Example 3-1.

hyaluronic acid (HA) = assay: HA production in HaCaT cells (hyaluronic acid ELISA kit); assay type: cell-based; conditions: 24 hours; for Increase in HA production (%): Concentration 50 (unit not given), Control = 100
Protocol: HaCaT cells were dispensed into a 24-well plate at 1.0×10^5 cells/mL and cultured under the conditions of 37° C. and 5% CO2 for 18 hours. After the medium was replaced with serum-free DMEM, the cells were treated with a sample and then cultured for 24 hours. Subsequently, the culture medium was collected and centrifuged at 15,000 rpm for five minutes, and the supernatant was collected and stored frozen (−20° C.) until quantified. Enzyme-linked immunosorbent assay (ELISA) was conducted, using a hyaluronic acid ELISA kit (Elabscience Biotechnology Co., Ltd.), according to the method specified by the manufacturer.
In order to evaluate the moisturizing effect of Examples 1 to 6 and Comparative Examples 1 to 5, an experiment was conducted to evaluate an HA production increasing effect.
The HA production amount was measured in the same manner as in Experimental Example 3-2.

aquaporin 3 (AQP3) = assay: AQP3 production in HaCaT cells (AQP3-ELISA kit); assay type: cell-based; conditions: 24 hours; for Increase in AQP3 production (%): Concentration 50 (unit not given), Control = 100
Protocol: as §1, with “In addition, HaCaT cells” for “HaCaT cells”, “cells/mL and then cultured under” for “cells/mL and cultured under”, “performed, using an AQP3-ELISA kit (Elabscience” for “performed, using a Filaggrin-ELISA kit (Elabscience”
In order to evaluate the moisturizing effect of Examples 1 to 6 and Comparative Examples 1 to 5, an experiment was conducted to evaluate an AQP3 production increasing effect.
The AQP3 production amount was measured in the same manner as in Experimental Example 3-2.

Molecule | Increase in FLG production (%) (filaggrin (FLG)) | Increase in HA production (%) (hyaluronic acid (HA)) | Increase in AQP3 production (%) (aquaporin 3 (AQP3)) | also measured
CCCCCCCCCCCCOS(=O)(=O)[O-].[Na+] [1% SLS] |  |  |  | Sum of skin irritation reaction intensity 1st (sensitive skin; 1st reading, patch test): 4.00; Sum of skin irritation reaction intensity 2nd (sensitive skin; 2nd reading, patch test): 4.00; Sum of skin irritation reaction intensity 3rd (sensitive skin; 3rd reading, patch test): 3.06; Irritation of level ++ or more in >10% of test subjects (sensitive skin; conformity criterion): Conforming; Safety zone (sensitive skin; conformity to safety zone of Table 20): Conforming; Skin irritation index (sensitive skin; patch test): 3.06
CCCCCCCCCCCCC/C=C/C(O)C(CO)NC(=O)CCCCCCCCCCCCCCCCCCCCCC (stereo not drawn) [Comparative Example 2, Ceramide NS] | 116.7% | 94.5% | 118.5% | 
CCCCCCCCCCCCCCCCCCCCCCC(=O)NC(CO)C(O)C(O)CCCCCCCCCCCCCC (stereo not drawn) [Comparative Example 3, Ceramide NP] | 115.5% | 93.2% | 114.6% | 
CCCCCCCCCCCCC/C=C/C(O)C(CO)NC(=O)C(O)CCCCCCCCCCCCCCCCCCCCC (stereo not drawn) [Comparative Example 4, Ceramide AS] | 122.4% | 94.6% | 114.5% | 
CCCCCCCCCCCCCCCCCCCCCC(O)C(=O)NC(CO)C(O)C(O)CCCCCCCCCCCCCC (stereo not drawn) [Comparative Example 5, Ceramide AP] | 129.9% | 95.2% | 113.7% | 
O=c1cc(-c2ccc(O)cc2)oc2cc(O[C@@H]3O[C@H](CO)[C@@H](O)[C@H](O)[C@H]3O)c([C@@H]3O[C@H](CO)[C@@H](O)[C@H](O)[C@H]3O)c(O)c12 [saponarin, 5-hydroxy-2-(4-hydroxyphenyl)-6-[3,4,5-trihydroxy-6-(hydroxymethyl)oxan-2-yl]-7-[3,4,5-trihydroxy-6-(hydroxymethyl)oxan-2-yl]oxychromen-4-one] |  |  |  | Increase of the expression level of FLG compared to the control (filaggrin (FLG); 24 hours (FIG. 6)): 29.87%; Production of HA (result in words) (hyaluronic acid (HA)): significantly increased the production of skin moisturizing factors; Production of AQP3 (result in words) (aquaporin 3 (AQP3)): significantly increased the production of skin moisturizing factors
Ceramide EOP [Comparative Example 1] | 119.5% | 93.0% | 117.5% | 

Source: patent US20220023196A1, “COSMETIC COMPOSITION FOR SKIN IMPROVEMENT COMPRISING GREEN BARLEY EXTRACT” (AMI COSMETIC CO., LTD., priority 2020, published 2022)
